The target in data set [1] is Sphingosine 1-phosphate receptor 2 (Homo sapiens, UniProt O95136). In words: Dose Response Cell Based Assay for Agonists of the S1P2 Receptor. [Related pubchem assays: 729, 736, 843 ]. In kind it is functional.
Data set [2] has as its target T1, Bcl-2-related protein A1 (Mus musculus, UniProt Q07440).
T1 sequence (Q07440 whole entry): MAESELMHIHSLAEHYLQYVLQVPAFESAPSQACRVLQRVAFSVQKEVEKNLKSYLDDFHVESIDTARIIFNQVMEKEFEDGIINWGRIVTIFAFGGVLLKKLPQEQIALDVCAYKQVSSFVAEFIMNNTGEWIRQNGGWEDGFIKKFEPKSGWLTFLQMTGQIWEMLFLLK
In words: Bfl-1 binding inhibitors, SAR follow-up, biochemical, fluorescence polarization (AID 1070). For orientation: Fluorescence polarisation rises when a labelled molecule tumbles more slowly, as on binding a larger partner.

The target of data set [3] is Glyceraldehyde-3-phosphate dehydrogenase (Homo sapiens, UniProt P04406).
Chain of Glyceraldehyde-3-phosphate dehydrogenase (P04406 whole entry): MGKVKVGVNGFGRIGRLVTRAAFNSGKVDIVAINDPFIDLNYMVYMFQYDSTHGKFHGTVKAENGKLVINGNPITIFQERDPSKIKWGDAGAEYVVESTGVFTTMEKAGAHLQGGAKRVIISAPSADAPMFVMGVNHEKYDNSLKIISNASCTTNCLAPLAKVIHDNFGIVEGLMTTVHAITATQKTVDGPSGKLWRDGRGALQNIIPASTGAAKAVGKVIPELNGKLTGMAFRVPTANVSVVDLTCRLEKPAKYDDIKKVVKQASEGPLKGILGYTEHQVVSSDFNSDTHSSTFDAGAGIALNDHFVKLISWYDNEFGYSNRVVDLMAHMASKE
Data set [4] deals with T1, Bcl-2-related protein A1. In words: Bfl-1 inhibitors blocking BH3 peptide binding, confirmation, biochemical, TR-FRET, mouse Bfl-1 (AID 621).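 Also: TR-FRET binding of GST-Bfl-1 to FITC-labelled Bid peptide via terbium antibody.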 On the technique in general: TR-FRET usually uses a lanthanide donor and a delayed reading to cut background.
Data set [5] in a line: inhibitors of HIV Env-driven cell fusion, dose response, cherry-pick (AID 652057). It is filed as functional, cell-based.
A short description of data set [6]: HeLa cell cytotoxicity, dose response, cytotoxicity control for MgcRacGAP inhibitor project (AID 624300). It is filed as functional.
Data set [7] can be described thus: Vero cell cytotoxicity, dose response, cytotoxicity control for Vif-APOBEC3G degradation inhibitor project, Vero cells (AID 1117358). In kind it is functional. As to conditions: Human immunodeficiency virus 1, Vero.
Data set [8] in a line: CEM21 lymphoblast cell cytotoxicity, dose response, cytotoxicity control for viral fusion inhibitor project, CellTiter-Glo luminescence, cherry-picked (AID 652042).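 Also: potency for signal decrease meaning cytotoxicity.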 It is filed as functional, cell-based.
Data set [9] addresses E3 ubiquitin-protein ligase Mdm2 (Homo sapiens, UniProt Q00987). In words: enhancers of MDM2-luciferase reporter signal, concentration-effect titration, project on inhibitors of MDM2 ubiquitin ligase, cellular assay, luminescent readout, 384-well plate format (AID 1394).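 Also: MDM2 E3 inhibitors raise luminescence so EC50 is for signal enhancement.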 It is filed as functional. (In general: Reporter assays use an easily measured gene product as a stand-in for the process of interest.)

The next data set relates to Streptococcus. In words: Group A Streptococcus viability loss, dose response, counter-screen for streptokinase expression inhibitor project, luminescence, BacTiterGlo (AID 1915).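 Also: potency for reduction of bacterial viability or growth.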 In kind it is functional, organism-based.
The test system of data set [10] is Streptococcus sp. 'group A'. In words: growth inhibition of control SK(-) GAS strain, dose response, counter-screen for streptokinase expression inhibitor project, luminescence, kanamycin, BacTiterGlo, confirmation (AID 1900). In kind it is functional, organism-based.
In the next data set the target is T2, Streptokinase A (Streptococcus pyogenes serotype M1, UniProt P10520).
T2 sequence (P10520 whole entry): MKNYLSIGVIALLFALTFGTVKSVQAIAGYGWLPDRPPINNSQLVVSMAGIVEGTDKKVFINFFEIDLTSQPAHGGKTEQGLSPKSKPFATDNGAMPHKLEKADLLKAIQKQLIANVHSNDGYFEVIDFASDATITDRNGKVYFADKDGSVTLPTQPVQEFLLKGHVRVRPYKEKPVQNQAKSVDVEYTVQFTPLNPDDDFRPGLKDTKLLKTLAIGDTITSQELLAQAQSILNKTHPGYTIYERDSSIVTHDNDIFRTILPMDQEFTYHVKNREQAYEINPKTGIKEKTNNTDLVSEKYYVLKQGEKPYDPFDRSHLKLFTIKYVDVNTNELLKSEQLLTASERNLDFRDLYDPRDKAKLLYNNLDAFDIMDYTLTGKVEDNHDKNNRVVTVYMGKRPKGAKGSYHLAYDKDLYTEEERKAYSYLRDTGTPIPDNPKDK
In words: S. pyogenes streptokinase expression inhibitors, potency, dose response, plasminogen activation absorbance, OD405 (AID 1914).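 Also: secreted streptokinase activity via plasminogen activation per viability signal from cell pellet.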 It is filed as functional, Streptococcus pyogenes M1 GAS.

Data set [11] addresses T3, Carboxy-terminal domain RNA polymerase II polypeptide A small phosphatase 1 (Homo sapiens, UniProt Q9GZU7).
T3 sequence (Q9GZU7 whole entry): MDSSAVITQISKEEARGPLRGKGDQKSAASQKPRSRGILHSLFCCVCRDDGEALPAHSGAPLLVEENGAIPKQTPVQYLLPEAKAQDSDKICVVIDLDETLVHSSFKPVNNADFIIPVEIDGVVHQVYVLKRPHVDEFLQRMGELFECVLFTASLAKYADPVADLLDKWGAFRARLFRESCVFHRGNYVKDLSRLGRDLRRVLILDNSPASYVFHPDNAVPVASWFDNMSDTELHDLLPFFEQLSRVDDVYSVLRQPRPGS
In words: inhibitors of CTDSP1, concentration-response testing, biochemical assay, absorbance-based, actives from ultra-high-throughput screening (AID 540297). It is filed as functional.

Data set [12] in a line: P. falciparum late gametocyte killing, dose response, luminescence (AID 1117278).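 Also: gametocytes exposed to compound for 24 hours.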 It is filed as functional, cell-based.
Data set [13] can be described thus: Jurkat T cell cytotoxicity, dose response, cytotoxicity control for P. falciparum gametocyte viability project, luminescence (AID 1117277).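 Also: potency reflects loss of cellular ATP meaning fewer viable cells.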 It is filed as functional, cell-based.
In the next data set the target is Cytochrome P450 3A4 (Homo sapiens, UniProt P08684).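 Also: CYP3A4 tested as one member of a cytochrome P450 panel screen.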
Chain of Cytochrome P450 3A4 (P08684 whole entry): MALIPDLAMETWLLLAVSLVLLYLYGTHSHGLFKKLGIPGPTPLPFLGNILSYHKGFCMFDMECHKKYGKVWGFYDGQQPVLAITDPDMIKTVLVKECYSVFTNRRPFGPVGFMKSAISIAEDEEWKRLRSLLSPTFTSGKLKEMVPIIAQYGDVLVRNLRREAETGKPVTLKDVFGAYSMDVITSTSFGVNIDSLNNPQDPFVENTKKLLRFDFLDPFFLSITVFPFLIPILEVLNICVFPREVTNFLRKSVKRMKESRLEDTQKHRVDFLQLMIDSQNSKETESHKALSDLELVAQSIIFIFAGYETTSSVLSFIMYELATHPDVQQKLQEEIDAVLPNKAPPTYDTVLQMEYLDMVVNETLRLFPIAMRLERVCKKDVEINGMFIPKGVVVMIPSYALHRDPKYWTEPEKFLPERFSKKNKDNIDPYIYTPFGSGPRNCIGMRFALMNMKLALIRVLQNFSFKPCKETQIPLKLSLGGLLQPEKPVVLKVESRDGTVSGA
A further data set concerns the target T4, Cytochrome P450 1A2 (Homo sapiens, UniProt P05177).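 Also: PubChem cytochrome P450 panel assay, CYP1A2 panel member.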
T4 sequence (P05177 whole entry): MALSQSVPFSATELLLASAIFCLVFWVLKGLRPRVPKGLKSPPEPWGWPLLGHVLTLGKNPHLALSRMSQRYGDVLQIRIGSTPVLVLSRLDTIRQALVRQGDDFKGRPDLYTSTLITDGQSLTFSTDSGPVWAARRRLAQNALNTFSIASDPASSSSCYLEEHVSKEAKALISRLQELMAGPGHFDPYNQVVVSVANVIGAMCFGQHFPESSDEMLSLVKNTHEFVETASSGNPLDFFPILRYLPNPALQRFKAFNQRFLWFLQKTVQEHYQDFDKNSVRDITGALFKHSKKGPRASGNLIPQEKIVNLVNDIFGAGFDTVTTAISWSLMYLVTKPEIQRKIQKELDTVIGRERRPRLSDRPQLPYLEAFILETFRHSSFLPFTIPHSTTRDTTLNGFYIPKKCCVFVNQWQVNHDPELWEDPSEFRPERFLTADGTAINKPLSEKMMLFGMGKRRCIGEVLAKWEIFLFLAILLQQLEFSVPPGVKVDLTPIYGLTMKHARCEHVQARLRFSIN

Another data set deals with Cytochrome P450 2C19 (Homo sapiens, UniProt P33261). In words: Cytochrome panel assay with activity outcomes. Panel member name: p450-cyp2c19 Compounds with AC50 equal or less than 10 uM are considered active. It is filed as functional. As to conditions: read-out: AC50.
Chain of Cytochrome P450 2C19 (P33261 whole entry): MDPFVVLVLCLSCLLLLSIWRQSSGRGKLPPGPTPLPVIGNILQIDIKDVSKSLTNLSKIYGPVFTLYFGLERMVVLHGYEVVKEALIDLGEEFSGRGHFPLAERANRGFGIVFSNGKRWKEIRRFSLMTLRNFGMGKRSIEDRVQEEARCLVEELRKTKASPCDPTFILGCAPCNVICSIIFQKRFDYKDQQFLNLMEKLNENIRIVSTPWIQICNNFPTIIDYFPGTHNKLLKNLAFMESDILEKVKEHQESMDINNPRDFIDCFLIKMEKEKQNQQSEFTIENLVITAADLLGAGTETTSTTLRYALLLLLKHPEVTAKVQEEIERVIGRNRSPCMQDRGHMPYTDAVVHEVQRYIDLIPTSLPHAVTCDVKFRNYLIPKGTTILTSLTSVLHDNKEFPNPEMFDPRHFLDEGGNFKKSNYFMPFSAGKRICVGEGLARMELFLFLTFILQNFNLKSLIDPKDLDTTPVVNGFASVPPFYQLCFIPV
The target in another data set is Cytochrome P450 2C9 (Homo sapiens, UniProt P11712).
Chain of Cytochrome P450 2C9 (P11712 whole entry): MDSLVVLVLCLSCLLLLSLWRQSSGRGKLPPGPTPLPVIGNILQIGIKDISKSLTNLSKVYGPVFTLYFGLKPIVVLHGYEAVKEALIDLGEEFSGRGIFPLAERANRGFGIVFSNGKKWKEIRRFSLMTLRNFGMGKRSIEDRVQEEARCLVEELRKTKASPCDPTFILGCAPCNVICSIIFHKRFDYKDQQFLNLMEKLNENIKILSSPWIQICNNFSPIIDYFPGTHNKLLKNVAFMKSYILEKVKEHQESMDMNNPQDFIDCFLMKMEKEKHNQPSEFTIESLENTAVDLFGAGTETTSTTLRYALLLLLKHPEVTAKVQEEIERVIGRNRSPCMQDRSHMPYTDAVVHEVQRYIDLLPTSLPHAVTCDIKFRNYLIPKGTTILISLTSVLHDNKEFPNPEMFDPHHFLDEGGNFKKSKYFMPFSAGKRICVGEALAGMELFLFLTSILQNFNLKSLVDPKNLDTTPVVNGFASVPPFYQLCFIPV
Data set [14] has as its target Protein-tyrosine kinase 2-beta (Homo sapiens, UniProt Q14289).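 Also: potency of inhibitors of PYK2 kinase phosphorylation of poly-GT substrate.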
Data set [15] in a line: half-maximal inhibitory concentration for glucagon-like peptide-1 release, STC-1 cell line, dose-response (AID 1117345). In kind it is functional, cell-based.
The nature of data set [16]: Glucagon-like peptide 1 release potency, NCI-H716 cell line, dose-response, half-maximal inhibitory concentration (AID 1117344). It is filed as functional, cell-based.

In general, EC50 refers to the concentration needed to bring the measured effect to its halfway point. As a reminder, the IC50 is the concentration that inhibits the measured activity by half. The AC50 is the concentration at which the activity in the assay is half-maximal. One may read the CC50 as the concentration giving 50% cytotoxicity.

Each structure is given as a SMILES string. Active and inactive are the calls of the source.

Chain of E3 ubiquitin-protein ligase Mdm2 (Q00987 whole entry): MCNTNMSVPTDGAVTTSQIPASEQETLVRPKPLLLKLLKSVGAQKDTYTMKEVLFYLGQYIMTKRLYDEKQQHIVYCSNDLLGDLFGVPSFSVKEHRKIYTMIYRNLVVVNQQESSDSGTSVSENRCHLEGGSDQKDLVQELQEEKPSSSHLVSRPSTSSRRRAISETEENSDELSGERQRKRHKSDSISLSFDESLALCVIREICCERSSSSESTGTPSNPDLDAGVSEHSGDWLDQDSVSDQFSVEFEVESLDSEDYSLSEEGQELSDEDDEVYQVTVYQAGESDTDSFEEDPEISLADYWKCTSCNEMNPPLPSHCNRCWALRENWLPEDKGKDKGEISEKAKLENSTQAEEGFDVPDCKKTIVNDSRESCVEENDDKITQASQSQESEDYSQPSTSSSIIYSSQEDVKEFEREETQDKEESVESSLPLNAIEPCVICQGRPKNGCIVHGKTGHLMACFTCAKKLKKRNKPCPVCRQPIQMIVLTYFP
Chain of Sphingosine 1-phosphate receptor 2 (O95136 whole entry): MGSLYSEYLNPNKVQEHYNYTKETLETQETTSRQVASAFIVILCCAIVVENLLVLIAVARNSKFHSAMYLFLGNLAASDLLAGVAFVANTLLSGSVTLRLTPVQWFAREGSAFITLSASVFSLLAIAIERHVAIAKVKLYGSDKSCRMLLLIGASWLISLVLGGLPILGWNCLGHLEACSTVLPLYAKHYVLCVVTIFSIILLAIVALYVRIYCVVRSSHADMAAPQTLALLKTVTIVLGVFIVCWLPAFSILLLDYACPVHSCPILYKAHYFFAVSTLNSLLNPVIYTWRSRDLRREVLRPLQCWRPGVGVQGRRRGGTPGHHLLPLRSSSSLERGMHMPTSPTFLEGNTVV
Chain of Protein-tyrosine kinase 2-beta (Q14289 whole entry): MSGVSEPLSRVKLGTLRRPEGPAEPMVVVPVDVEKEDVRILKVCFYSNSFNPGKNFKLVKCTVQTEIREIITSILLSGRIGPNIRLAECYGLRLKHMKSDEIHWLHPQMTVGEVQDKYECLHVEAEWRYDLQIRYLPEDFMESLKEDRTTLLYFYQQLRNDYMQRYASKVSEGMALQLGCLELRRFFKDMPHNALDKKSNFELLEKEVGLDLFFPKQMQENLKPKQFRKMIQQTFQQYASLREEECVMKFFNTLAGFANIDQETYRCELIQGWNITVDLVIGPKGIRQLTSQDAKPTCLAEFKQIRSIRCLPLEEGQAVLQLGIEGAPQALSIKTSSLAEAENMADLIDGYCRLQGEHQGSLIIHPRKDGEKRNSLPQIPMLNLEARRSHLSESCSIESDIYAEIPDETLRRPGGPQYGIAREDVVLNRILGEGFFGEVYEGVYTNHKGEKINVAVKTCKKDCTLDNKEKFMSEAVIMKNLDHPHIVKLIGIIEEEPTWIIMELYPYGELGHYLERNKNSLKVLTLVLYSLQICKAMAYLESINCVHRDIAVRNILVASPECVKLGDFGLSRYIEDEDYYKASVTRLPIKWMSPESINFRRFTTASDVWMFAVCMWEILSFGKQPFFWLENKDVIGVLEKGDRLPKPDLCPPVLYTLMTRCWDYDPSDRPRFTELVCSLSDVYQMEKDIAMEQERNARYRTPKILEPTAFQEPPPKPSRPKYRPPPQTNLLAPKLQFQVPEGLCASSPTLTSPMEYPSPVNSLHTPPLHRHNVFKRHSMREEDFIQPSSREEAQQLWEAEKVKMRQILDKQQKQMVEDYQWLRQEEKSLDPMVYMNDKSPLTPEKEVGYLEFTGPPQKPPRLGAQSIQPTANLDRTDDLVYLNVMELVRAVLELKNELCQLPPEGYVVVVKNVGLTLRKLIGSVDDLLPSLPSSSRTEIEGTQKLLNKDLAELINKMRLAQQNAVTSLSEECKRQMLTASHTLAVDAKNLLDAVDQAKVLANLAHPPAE

As for `Cc1cc(-c2nnc(SCC(=O)NC3CCCC3)o2)no1`, the EC50 in data set [1] is reported as > 50 µM (not active).
For the compound `O=C1C(Cl)=C(N2CCN(Cc3ccc4c(c3)OCO4)CC2)C(=O)N1c1ccc([N+](=O)[O-])cc1`, the IC50 on Bcl-2-related protein A1 [2] was 4.68 µM (active); in data set [3], > 100 µM (not active); on Bcl-2-related protein A1 [4], 4.59 µM (active).
On to `COc1ccc2[nH]c3c(N4CCC(O)(c5cccc(C(F)(F)F)c5)CC4)ncnc3c2c1`, for which the AC50 is 9.77 µM (active) in [5] and 7.3 µM (active) in [8]. Further, the CC50 in data set [6] is 33 µM (active); in [7], 29.4 µM (active).
As to `Cc1ccsc1C1Nc2ccc3ncccc3c2C2=C1C(=O)CCC2` (stereo not given), in [9], the EC50 is given as 25 µM (not active).
Take `COc1ccc(Cn2c(-c3ccco3)nc3oc4cc(OC)ccc4c(=O)c3c2=O)cc1`: the EC50 in the data set with Streptococcus was > 150 µM (not active); in data set [10] it was 25.5 µM (active); on Streptokinase A, > 150 µM (not active); in data set [1], > 50 µM (not active). The IC50 in [11] is 7.58 µM (active).
For the compound `COc1ccc2ncc(S(=O)(=O)c3ccccc3)c(N3CCN(c4ccccc4)CC3)c2c1`, the EC50 in the data set on Streptococcus is 74.8 µM (active); in data set [10], 9.42 µM (active); at Streptokinase A, > 150 µM (not active). In addition, the values for the IC50 in data set [12] and in data set [13] were > 109 µM (inactive) and > 83.3 µM (inactive), respectively.
As to `O=C1C(Cl)=C(N2CCN(c3ccc(F)cc3)CC2)C(=O)N1c1ccc(Cl)c(Cl)c1`, the IC50 at Bcl-2-related protein A1 [2] was > 100 µM (not active); on Bcl-2-related protein A1 [4], 19.1 µM (active).
As to `C=CCn1c(P(=O)(O)c2ccccc2)nc2ccccc21`, the AC50 result at Cytochrome P450 3A4 was “inconclusive”; at Cytochrome P450 1A2, 15.8 µM (inconclusive); on Cytochrome P450 2C19, 6.31 µM (inconclusive); at Cytochrome P450 2C9, 25.1 µM (inconclusive). Moreover, the IC50 in data set [14] is listed as 26.6 µM (not active).
As to `COC(=O)C(C(=O)Nc1ccc(OC)cc1)C1CCCCCC1` (stereo not given), the CC50 in data set [7] was > 40 µM (active).
Turning to `NC(=O)c1c(NC(=O)C2CCCO2)sc2c1CCCC2` (stereo not given), the concentration for a half-maximal effect (EC50) in data set [9] is listed as 7.26 µM (not active).
In the case of `O=c1oc2ccccc2c(O)c1C(CC(O)c1ccc(-c2ccc(Br)cc2)cc1)c1ccccc1` (stereo not given) [BROMODIOLONE], the IC50 in data set [15] is 9.16 µM (inactive); in [16], > 40 µM (inactive).
